Source: patent EP1196433B1, “CYCLIC PEPTIDE DERIVATIVES AS INHIBITORS OF INTEGRIN ALPHA v BETA 6” (Merck Patent GmbH, priority 1999, dated 2001)
Non-standard residues stand in square brackets, D forms with d. Residues, ends and D or L forms follow the SMILES beside them.

Target: T1, αvβ6 Rezeptor (Homo sapiens, UniProt P06756+P18564)
T1 construct: Die Immobilisierung von löslichem αvβ6 Rezeptor auf Microtiterplatten
Test: αvβ6 / fibronectin receptor binding test (competition of peptide with biotinylated fibronectin on immobilised integrin, ELISA read-out)
Conditions: for Q-Wert = IC50 Testpeptid / IC50 EMD 271293: standard Ac-RTDLDSLR-NH2, Q values of repeated experiments averaged; for -log Q / Q (IC50[Substanz] / IC50[EMD 271293]): peptides Cyclo-(Arg-Gly-Asp-Leu-D-Asp-Ala-Leu-Arg-R^1), labelled by R^1; for -log Q: Q = IC50[Substanz] / IC50[EMD 271293]; for Q (IC50[Substanz] / IC50[EMD 271293]): ratio to comparison compound EMD 271293
From the text: αvβ6 / Fibronektin Rezeptorbindungstest:
Die hergestellten erfindungsgemäßen Peptide wurden in Lösung zusammen mit kompetetiv wirkenden Fibronektin an den immobiliserten αvβ6 Rezeptor gebunden und der Q-Wert als Maß für die Selektivität der Bindung des zu testenden Peptids an αvβ6 ermittelt. Der Q-Wert berechnet sich dabei aus dem Quotienten der IC50-Werte von Testpeptid und einem Standard. Als Standard diente das lineare Ac-RTDLDSLR-NH2 (Code EMD 271293) (Lit./Patent vgl Pytela et al. Science 231, 1559, (1986)). Der Bindungstest wurde im einzelnen wie folgt durchgeführt: • Die Immobilisierung von löslichem αvβ6 Rezeptor auf Microtiterplatten erfolgte durch Verdünnung der Proteinlösung in TBS++ und anschliessender Inkubation über Nacht bei 4°C (100 µl/Vertiefung). Unspezifische • Bindungsstellen wurden durch Inkubation (2 h, 37°C) mit 3% (w/v) BSA in TBS++ (200 µl/Vertiefung) blockiert. Überschüssiges BSA wurde durch dreimaliges Waschen mit TBSA++ entfernt. Peptide wurden seriell (1:10) in TBSA++ verdünnt und zusammen mit biotinyliertem Fibronektin (2 µg/ ml) mit dem immobilisierten Integrin inkubiert (50 µl Peptid + 50 µl Ligand pro Vertiefung; 2 h; 37°C). Nicht gebundenes Fibronektin und Peptide wurden durch dreimaliges Waschen mit TBSA++ entfernt. Die Detektion des gebundenen Fibronektin erfolgte durch Inkubation (1 h; 37 °C) mit einem alkalische-Phosphatase-gekoppelten anti-Biotin-Antikörper (Biorad) (1:20000 in TBSA++; 100 µl/Vertiefung). Nach dreimaligem Waschen mit TBSA++ erfolgte die kolorimetrische Detektion durch Inkubation (10-15 min; 25°C, im Dunkeln) mit Substratlösung (5 mg Nitrophenylphosphat, 1 ml Ethanolamin, 4 ml H2O; 100 µl/Vertiefung). Die Enzymreaktion wurde durch Zugabe von 0,4 M NaOH (100 µl/Vertiefung) gestoppt. Die Farbintensität wurde bei 405 nm im ELISA-Meßgerät bestimmt und gegen den Nullwert abgeglichen. Als Nullwert dienten Vertiefungen, die nicht mit Rezeptor beschichtet waren. Als Standard wurde Ac-RTDLDSLR-NH2 eingesetzt. Die IC50-Werte für die getesteten Peptide wurden aus einer Graphik abgelesen und daraus zusammen mit dem IC50-Wert des Standardpeptids der Q-Wert des erfindungsgemäßen Peptids ermittelt. Q-Wert = IC50 Testpeptid/IC50 Standard [formula] Q-Werte aus Versuchswiederholungen wurden gemittelt.

[1] = biotinylated fibronectin 2 µg/ml

T1 sequence (P06756 31-992 limits assumed): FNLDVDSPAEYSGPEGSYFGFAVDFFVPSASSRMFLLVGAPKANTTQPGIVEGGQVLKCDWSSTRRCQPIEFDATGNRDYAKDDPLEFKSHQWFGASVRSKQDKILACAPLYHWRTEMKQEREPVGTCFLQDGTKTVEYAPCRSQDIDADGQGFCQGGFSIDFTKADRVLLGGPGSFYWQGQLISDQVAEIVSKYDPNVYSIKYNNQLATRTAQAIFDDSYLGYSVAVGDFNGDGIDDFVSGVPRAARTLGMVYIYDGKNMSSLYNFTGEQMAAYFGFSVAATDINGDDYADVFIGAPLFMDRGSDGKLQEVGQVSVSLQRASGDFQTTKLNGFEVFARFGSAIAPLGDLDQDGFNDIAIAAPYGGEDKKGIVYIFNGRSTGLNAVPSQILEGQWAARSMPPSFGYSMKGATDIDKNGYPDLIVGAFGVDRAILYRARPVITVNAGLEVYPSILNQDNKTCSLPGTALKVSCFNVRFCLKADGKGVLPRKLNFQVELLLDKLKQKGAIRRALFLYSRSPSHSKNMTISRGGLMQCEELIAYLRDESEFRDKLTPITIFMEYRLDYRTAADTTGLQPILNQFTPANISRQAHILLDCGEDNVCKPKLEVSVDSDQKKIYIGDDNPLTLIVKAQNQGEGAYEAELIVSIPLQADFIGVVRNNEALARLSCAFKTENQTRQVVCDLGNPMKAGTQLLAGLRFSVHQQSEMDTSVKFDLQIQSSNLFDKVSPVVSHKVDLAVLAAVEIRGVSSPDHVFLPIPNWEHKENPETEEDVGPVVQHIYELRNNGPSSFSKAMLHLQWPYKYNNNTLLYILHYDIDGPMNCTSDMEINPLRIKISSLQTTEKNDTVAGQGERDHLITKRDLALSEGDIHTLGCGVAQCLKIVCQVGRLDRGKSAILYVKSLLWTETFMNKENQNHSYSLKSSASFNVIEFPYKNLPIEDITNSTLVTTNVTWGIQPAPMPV
T1 sequence (P18564 22-709 limits assumed): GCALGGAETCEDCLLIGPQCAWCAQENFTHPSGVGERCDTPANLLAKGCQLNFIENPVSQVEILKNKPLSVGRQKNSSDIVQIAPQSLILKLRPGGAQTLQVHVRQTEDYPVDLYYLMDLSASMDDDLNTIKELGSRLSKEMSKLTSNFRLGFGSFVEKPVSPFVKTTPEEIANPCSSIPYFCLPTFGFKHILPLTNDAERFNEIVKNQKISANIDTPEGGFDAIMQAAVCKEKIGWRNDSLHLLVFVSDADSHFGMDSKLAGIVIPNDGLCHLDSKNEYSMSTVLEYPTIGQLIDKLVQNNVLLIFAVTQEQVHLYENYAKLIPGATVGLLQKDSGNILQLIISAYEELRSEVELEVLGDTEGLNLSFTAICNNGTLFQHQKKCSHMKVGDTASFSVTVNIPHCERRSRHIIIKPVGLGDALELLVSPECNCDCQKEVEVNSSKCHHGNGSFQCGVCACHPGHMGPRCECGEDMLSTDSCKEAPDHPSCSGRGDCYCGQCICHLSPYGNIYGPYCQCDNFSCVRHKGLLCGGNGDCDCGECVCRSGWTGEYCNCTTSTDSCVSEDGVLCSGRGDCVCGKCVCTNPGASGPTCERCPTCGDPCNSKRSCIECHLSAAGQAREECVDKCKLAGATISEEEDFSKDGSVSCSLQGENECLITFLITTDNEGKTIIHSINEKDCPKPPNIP

Compound	Q-Wert = IC50 Testpeptid / IC50 EMD 271293 [1]	IC50 (IC50 of the standard peptide, printed in brackets beside its Q value, biotinylated fibronectin 2 µg/ml)	-log Q	Q (IC50[Substanz] / IC50[EMD 271293])
CC(=O)N[C@@H](CCCNC(=N)N)C(=O)N[C@H](C(=O)N[C@@H](CC(=O)O)C(=O)N[C@@H](CC(C)C)C(=O)N[C@@H](CC(=O)O)C(=O)N[C@@H](CO)C(=O)N[C@@H](CC(C)C)C(=O)N[C@@H](CCCNC(=N)N)C(N)=O)[C@@H](C)O [compound 271293] (Ac-RTDLDSLR-NH2)	1,00	0.075 µM	–	–
CC(C)C[C@@H]1NC(=O)[C@H](C)NC(=O)[C@@H](CC(=O)O)NC(=O)[C@H](CC(C)C)NC(=O)[C@H](CC(=O)O)NC(=O)CNC(=O)[C@H](CCCNC(=N)N)NC(=O)CNC(=O)CNC(=O)[C@H](CCCNC(=N)N)NC1=O [EMD 271592, cyclo-(RGDLdALRGG)] (cyclo(RGDL[dD]ALRGG))	–	–	1,301	0,05
cyclo-(RGDLdALR-Aha-Aha) [EMD 272958]	–	–	1,444	0,036
CC(C)C[C@@H]1NC(=O)[C@H](C)NC(=O)[C@@H](CC(=O)O)NC(=O)[C@H](CC(C)C)NC(=O)[C@H](CC(=O)O)NC(=O)CNC(=O)[C@H](CCCNC(=N)N)NC(=O)CNC(=O)CNC(=O)CNC(=O)CNC(=O)CNC(=O)CNC(=O)[C@H](CCCNC(=N)N)NC1=O [EMD 271594, cyclo-(RGDLdALRGGGGGG)] (cyclo(RGDL[dD]ALRGGGGGG))	–	–	1,301	0,05
cyclo-(RGDLdALR-Abu-Abu) [EMD 272914]	–	–	1,523	0,03
cyclo-(RGDLdALR-Abu) [EMD 273035]	–	–	1,553	0,028
CC(C)C[C@@H]1NC(=O)[C@H](C)NC(=O)[C@@H](CC(=O)O)NC(=O)[C@H](CC(C)C)NC(=O)[C@H](CC(=O)O)NC(=O)CNC(=O)[C@H](CCCNC(=N)N)NC(=O)CNC(=O)CNC(=O)CNC(=O)CNC(=O)[C@H](CCCNC(=N)N)NC1=O [EMD 272961, cyclo-(RGDLdALRGGGG)] (cyclo(RGDL[dD]ALRGGGG))	–	–	1,481	0,033
CC(C)C[C@@H]1NC(=O)[C@H](C)NC(=O)[C@@H](CC(=O)O)NC(=O)[C@H](CC(C)C)NC(=O)[C@H](CC(=O)O)NC(=O)CNC(=O)[C@H](CCCNC(=N)N)NC(=O)CNC(=O)CNC(=O)CNC(=O)CNC(=O)CNC(=O)[C@H](CCCNC(=N)N)NC1=O [EMD 272962, cyclo-(RGDLdALRGGGGG)] (cyclo(RGDL[dD]ALRGGGGG))	–	–	1,337	0,046
cyclo-(RGDLdALR-Aha) [EMD 272959]	–	–	1,444	0,036
CC(C)C[C@@H]1NC(=O)[C@H](C)NC(=O)[C@@H](CC(=O)O)NC(=O)[C@H](CC(C)C)NC(=O)[C@H](CC(=O)O)NC(=O)CNC(=O)[C@H](CCCNC(=N)N)NC(=O)CNC(=O)[C@H](CCCNC(=N)N)NC1=O [EMD 271591, cyclo-(RGDLdALRG)] (cyclo(RGDL[dD]ALRG))	–	–	-0,322	2,1
CC(C)C[C@@H]1NC(=O)[C@H](C)NC(=O)[C@@H](CC(=O)O)NC(=O)[C@H](CC(C)C)NC(=O)[C@H](CC(=O)O)NC(=O)CNC(=O)[C@H](CCCNC(=N)N)NC(=O)CNC(=O)CNC(=O)CNC(=O)[C@H](CCCNC(=N)N)NC1=O [EMD 271593] (cyclo(RGDL[dD]ALRGGG))	–	–	1,523	0,03

Now from value to compound:

Q-Wert = IC50 Testpeptid / IC50 EMD 271293 [1]	IC50 (IC50 of the standard peptide, printed in brackets beside its Q value, biotinylated fibronectin 2 µg/ml)	-log Q	Q (IC50[Substanz] / IC50[EMD 271293])	Compound
2,1	–	–	–	CC(C)C[C@@H]1NC(=O)[C@H](C)NC(=O)[C@@H](CC(=O)O)NC(=O)[C@H](CC(C)C)NC(=O)[C@H](CC(=O)O)NC(=O)CNC(=O)[C@H](CCCNC(=N)N)NC(=O)CNC(=O)[C@H](CCCNC(=N)N)NC1=O [compound 271591] (cyclo(RGDL[dD]ALRG))
0,03	–	–	–	CC(C)C[C@@H]1NC(=O)[C@H](C)NC(=O)[C@@H](CC(=O)O)NC(=O)[C@H](CC(C)C)NC(=O)[C@H](CC(=O)O)NC(=O)CNC(=O)[C@H](CCCNC(=N)N)NC(=O)CNC(=O)CNC(=O)CNC(=O)[C@H](CCCNC(=N)N)NC1=O [compound 271593] (cyclo(RGDL[dD]ALRGGG))
0,05	–	–	–	CC(C)C[C@@H]1NC(=O)[C@H](C)NC(=O)[C@@H](CC(=O)O)NC(=O)[C@H](CC(C)C)NC(=O)[C@H](CC(=O)O)NC(=O)CNC(=O)[C@H](CCCNC(=N)N)NC(=O)CNC(=O)CNC(=O)[C@H](CCCNC(=N)N)NC1=O [compound 271592] (cyclo(RGDL[dD]ALRGG))
0,046	–	–	–	CC(C)C[C@@H]1NC(=O)[C@H](C)NC(=O)[C@@H](CC(=O)O)NC(=O)[C@H](CC(C)C)NC(=O)[C@H](CC(=O)O)NC(=O)CNC(=O)[C@H](CCCNC(=N)N)NC(=O)CNC(=O)CNC(=O)CNC(=O)CNC(=O)CNC(=O)[C@H](CCCNC(=N)N)NC1=O [compound 272962] (cyclo(RGDL[dD]ALRGGGGG))
0,033	–	–	–	CC(C)C[C@@H]1NC(=O)[C@H](C)NC(=O)[C@@H](CC(=O)O)NC(=O)[C@H](CC(C)C)NC(=O)[C@H](CC(=O)O)NC(=O)CNC(=O)[C@H](CCCNC(=N)N)NC(=O)CNC(=O)CNC(=O)CNC(=O)CNC(=O)[C@H](CCCNC(=N)N)NC1=O [compound 272961] (cyclo(RGDL[dD]ALRGGGG))
0,05	–	–	–	CC(C)C[C@@H]1NC(=O)[C@H](C)NC(=O)[C@@H](CC(=O)O)NC(=O)[C@H](CC(C)C)NC(=O)[C@H](CC(=O)O)NC(=O)CNC(=O)[C@H](CCCNC(=N)N)NC(=O)CNC(=O)CNC(=O)CNC(=O)CNC(=O)CNC(=O)CNC(=O)[C@H](CCCNC(=N)N)NC1=O [compound 271594] (cyclo(RGDL[dD]ALRGGGGGG))
